Data as given in patent US10857201B2, “NNIF and nNIF-related peptides and related methods” (UNIVERSITY OF UTAH RESEARCH FOUNDATION, priority 2016, dated 2020).
Entries after “also recorded” stand apart in the source; their conditions may differ.

How the values were obtained:
PMN chemotaxis = assay: IL-8 induced chemotaxis, modified Boyden chamber; format: cell-based, human; conditions: IL-8 2 ng/mL, peptides 1 nM
Experimental: FIG. 6D is a graph depicting chemotaxis in response to IL-8 (2 ng/mL) that was examined in a Boyden chamber assay. The dashed line indicates the response to IL-8 alone arbitrarily set at 1.
Chemotaxis by PMNs isolated from healthy adult donors was assessed using a modified Boyden chamber assay ± a 1 hour pre-incubation with nNIF (1 nM), CRISPP (1 nM), or CRISPP-SCR (1 nM). Recombinant human IL-8 (2 ng/mL) was used as the chemoattractant. Chemotaxis through a 5 micron filter was determined by counting PMNs in 10 randomly selected high-power fields as previously described (see Hill H R, et al., Lancet. 1974; 2 (7881):617-9). In separate experiments, nNIF, CRISPP, or CRISPP-SCR (all at 1 nM) were evaluated for chemoattractant activity using the same system.
Without being bound by any specific theory, it was hypothesized that placentally expressed HTRA1, a serine protease, regulates the formation of NET-inhibitory peptides through cleavage of AAT. To test this hypothesis, term and preterm placenta were assessed for HTRA1 expression via western blotting. HTRA1 and AAT plasma expression from term and preterm infants and adults were determined by ELISA. […] Carboxy-terminus fragments of AAT were detected using western blotting and mass spectrometry. […] Reactive oxygen species were assessed using flow cytometry, chemotaxis using a modified Boyden chamber assay, and bacterial killing using E. coli.

neutrophil elastase (NE) = target: T1, neutrophil elastase (NE) (Homo sapiens, UniProt P08246); assay: Neutrophil elastase activity assay; format: biochemical; conditions: in vitro; (MeOSuc)-AAPV-(pNA) 160 μM, 3 hours, 37° C., and additional assays
T1 construct: purchased SIGMA-ALDRICH
T1 sequence (P08246 30-267): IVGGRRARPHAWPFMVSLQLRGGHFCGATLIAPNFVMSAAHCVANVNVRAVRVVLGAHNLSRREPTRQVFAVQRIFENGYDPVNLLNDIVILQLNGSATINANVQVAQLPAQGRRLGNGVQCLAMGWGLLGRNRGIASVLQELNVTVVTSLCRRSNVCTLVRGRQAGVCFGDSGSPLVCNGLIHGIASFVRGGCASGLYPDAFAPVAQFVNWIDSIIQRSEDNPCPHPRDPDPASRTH
Experimental: FIG. 12B depicts NE enzyme activity that was examined by cleavage of the synthetic substrate (MeOSuc)-AAPV-(pNA) to (MeOSuc)-AAPV and (pNA) as products detected by liquid chromatography and chromatogram peak identification by mass spectroscopy. (MeOSuc)-AAPV-(pNA) (160 μm) was incubated with NE (2 mU), sivelestat (160 μm), or NE and sivelestat (left panel) or with NE (2 mU), nNIF ([…]), or NE and nNIF (right panel) for 3 hours at 37° C. Chromatograms are offset on the X and Y axes for ease of comparison. In the presence of NE alone, the (MeOSvc)-AAPV-(pNA) peak was almost completely eliminated and (MeOSvc)-AAPV and (pNA) peaks were generated. […] In contrast, it was not inhibited by nNIF.
Synthetic fluorogenic substrate of NE, (MeOSuc)-AAPV-(pNA) (160 μM), was incubated with bioactive NE (500 nM)±the NE inhibitor, sivelestat (160 μM) or nNIF (50 nM), for 3 hours at 37° C. The reactions were quenched with 5% glacial acetic acid and centrifuged at 14,000 rpm for 5 minutes. Chromatograms were obtained using an AGILENT™ 1100 Series HPLC and a PHENOMENEX® 5 μm C18 LUNA® column (100 Å, 4.6×150 mm) over a 30 minute 10% to 90% B gradient (Buffer A 0.1% TFA in H2O, Buffer B 0.1% TFA in ACN). Mass spectra were obtained for secondary validation of the reaction products using an API® 3500 triple quadrupole mass spectrometer. Chromatograms were offset on both the X and Y axes (by 0.5 minutes and 0.1 A214, respectively) for greater visibility.

previously-formed NETs = assay: Post-treatment of previously formed NETs (dismantling); format: cell-based, human; conditions: agent added after LPS stimulation; nNIF, CRISPP 1 nM; DNase 3.78 U/mL
Experimental: FIG. 4A is a series of images depicting neutrophils isolated from venous blood of healthy adults that were incubated in medium alone (Control) or activated with LPS (100 ng/mL). CRISPP (1 nM) was added at 0, 30, or 60 minutes after LPS, and the presence of NETs was assessed by live cell imaging as in FIG. 1A after an additional 1 hour of incubation (20× magnification; scale bar=100 μm). The images are representative of three separate experiments.
For selected experiments, primary PMNs were pre-incubated with autologous plasma, cord blood plasma, nNIF (0.2-70 nM), CRISPP (0.2-70 nM), nNIF-SCR (1 nM), or CRISPP-SCR (1 nM) for one hour prior to stimulation. After pre-incubation and/or stimulation, PMNs were gently washed with PBS and incubated with a mixture of cell permeable (SYTO® Green, MOLECULAR PROBES®) and impermeable (SYTOX® Orange, MOLECULAR PROBES®) DNA fluorescent dyes. Confocal microscopy was accomplished using a FV1000 IX81 confocal microscope and FLUOVIEW™ software (OLYMPUS™). Both 20× and 60× objectives were used. Z-series images were obtained at a step size of 1 μm over a range of 20 μm for each field. FLUOVIEW™ and ADOBE™ PHOTOSHOP™ CS2 software was used for image processing.

PMN phagocytosis = assay: Phagocytosis of fluorescently labeled E. coli bioparticles; format: cell-based, human; conditions: 4 hour incubation, peptides 1 nM
Experimental: FIG. 6C is a graph depicting phagocytosis of fluorescently-labeled E. coli bioparticles that were measured by microscopy after a 4 hour incubation. Treatment with cytochalasin B and D served as a control for inhibition of phagocytosis. Student's t test, *P<0.05.
PMNs were isolated from blood of healthy adult donors and resuspended in M-199 at a concentration of 2×10^6 cells/mL. Leukocytes were pre-incubated for 60 minutes under standard conditions with cytochalasin D and B (10 μM), nNIF (1 nM), CRISPP (1 nM), or CRISPP-SCR (1 nM). Following pre-incubation, PMNs were incubated with 6×10^6 E. coli bioparticles (MOLECULAR PROBES®) on a rotator for 4 hours at 37° C. in 5% […] air. The PMNs were then washed and resuspended in the starting volume of M-199 before being spun down onto glass coverslips and fixed with 2% p-FA for 10 minutes and permeabilized with 0.1% Triton-X-100 for 10 minutes. Leukocytes were stained with WGA 555 (INVITROGEN™) and TO-PRO®-3 (MOLECULAR PROBES®), and randomly selected high-power visual field images were captured using confocal microscopy. IMAGEJ™ software (NIH) was used to determine the percentage of PMNs that were positive for fluorescently labeled E. coli bioparticles detected at 488 nm.

Substance | IL-8 induced chemotaxis (PMN chemotaxis) | NE activity (substrate cleavage) (neutrophil elastase (NE)) | degradation or dismantling of previously-formed NETs (previously-formed NETs) | phagocytosis (PMN phagocytosis)
KFNKPFVFLMIEQNTKSPLFMGKVVNPTQ (listed as Homo sapiens) [nNIF] | did not inhibit | neither nNIF nor CRISPP inhibited NE activity; also recorded: not inhibited | do not degrade or dismantle | did not inhibit
M_IPPEVKFNKPFVFLMIDQNTKVPLFMGK [CRISPP, consensus peptide based on factors present in the blood of patients with cancer] | did not inhibit | neither nNIF nor CRISPP inhibited NE activity | do not degrade or dismantle | did not inhibit
